# Entries after “also recorded” stand apart in the source; their conditions may differ.
# B1: Spacer: full-length pRb2/p130 spacer domain, amino acids 616-828 (SEQ ID NO:20) (protein, listed as Homo sapiens)
# chain: VPTCEEVMPPQNLERADEICIAGSPLTPRRVTEVRADTGGLGRSITSPTTLYDRYSSPPASTTRRRLFVENDSPSDGGTPGRMPPQPLVNAVPVQNVSGETVSVTPVPGQTLVTMATATVTANNGQTVTIPVQGIANENGGITFFPVQVNVGGQAQAVTGSIQPLSAQALAGSLSSQQVTGTTLQVPGQVAIQQISPGGQQQKQGQSVTSSSN
# Key:
# cdk2 = test: in vitro cdk2 kinase assay with GST-fusion proteins, histone H1 substrate; assay type: biochemical; parameters: key to Kinase assay (inhibitory effect on cdk2 activity): P=positive; N=negative; settings: for Kinase assay (inhibitory effect on cdk2 activity): 0.1 μg GST-fusion protein, cdk2 immunoprecipitated from NIH/3T3; for inhibitory effect on cdk2 activity / histone H1 phosphorylation in vitro: GST-fusion protein added to cdk2 immunoprecipitate from NIH/3T3
# Procedure: Constructs preparation: A prokaryotic expression vector pGEX-2T (Stratagene Inc., La Jolla Calif.) and polymerase chain reaction (PCR) were used to generate chimeric Glutathione-S-Transferase constructs. The primers used by PCR to amplify the fragments that were subcloned in the pGEX-2T were derived from the 5′ and 3′ ends of different regions of the spacer domain of […]. The mammalian expression vector pEF6/V5-His TOPO (Invitrogen Corp, Carlsbad, Calif.) was used to generate the constructs pEF6/V5-His-spacer and pEF6/V5-His-310 that express the correspondent genes with a C-terminal V5 epitope. The spacer and the 310 fragments were PCR-amplified with the respective primers (Table 1) to generate 3′ends of the cDNAs without stop codons and were subsequently subcloned into pEF6/V5-His TOPO (Invitrogen Corp, Carlsbad, Calif.) according to the manufacturer's instructions to obtain cDNAs coding for C-terminal fusion proteins. All generated constructs were confirmed by automated sequencing. Information regarding the primers is available upon request.
# GST Fusion protein preparation: XL1-Blue bacteria carrying the pGEX-2T vectors were grown to mid log phase and then induced to express protein by adding 0.25 mM of isopropyl-1-thio-β-D-galactopyranoside (IPTG, Roche Applied Science, Indianapolis, Ind.). The cultures were shaken for 4 h; bacteria were then pelleted and resuspended in NENT buffer (20 mM Tris pH 8, 100 mM NaCl, 1 mM EDTA, 0.5% NP-40). Cell suspensions were sonicated, pelleted and the supernatant collected. The remaining bacteria were then resuspended in NENT buffer plus 2% of N-Lauryl-Sarcosine, pelleted and the supernatants were collected again. The combined supernatants were incubated with Glutathione agarose (Amersham Biosciences, Piscataway, N.J.) overnight at 4° C. The agarose was then pelleted and washed three times in NENT buffer.
# Kinase assays: Cell lysates from NIH/3T3 were prepared by resuspending pelleted cells in 500 μl of lysis buffer (50 mM Tris, 5 mM EDTA, 250 mM NaCl, 50 mM NaF, 0.1% Triton, 0.1 mM Na3VO4, plus protease inhibitors). An equal amount of protein for each fraction (100 μg) was immunoprecipitated with a polyclonal anti-cdk2 antibody (De Luca et al., 1997, J Biol Chem, 272, 20971-4). The complexes were pulled down with protein A-Sepharose and washed three times with lysis buffer and twice with lysis buffer containing 400 mM NaCl. The complexes were equilibrated in kinase assay buffer (20 mM HEPES pH 7.4, 10 mM MgAc, […], 1 mM DTT). In order to detect the in vitro inhibition of cdk2 activity, each sample was incubated with an equal amount (0.1 μg) of each pGEX-2T fusion protein, in a final volume of 20 μl of kinase buffer, using 5 μCi/sample of γ-ATP (Amersham Biosciences, Piscataway, N.J.) and 2 μg of Histone H1 for 30 minutes at 30° C. Kinase assays were repeated at least three times, giving an inter assay standard deviation within 10% after normalization for protein amount. In order to evaluate the in vivo inhibition of cdk2 activity, cdk2 was immunoprecipitated, as described above, from NIH/3T3 cells transiently transfected with 5 μg of pEF6/V5-spacer, pEF6/V5-Spa310 or the vector alone as a control. The immunocomplexes were split in two tubes. A half of each sample was assayed for cdk2 activity in a final volume of 20 μl of kinase buffer with 5 μCi/sample of γ-ATP and 2 μg of Histone H1 for 30 min. at 30° C.; the second one was tested in western blot analysis to confirm that all the samples contained the amount of cdk2 immunoprecipitated. Briefly the samples were separated into 12% SDS polyacrylamide gels (SDS-PAGE), and then transferred into a nitrocellulose membrane (Schleicher & Schuell, Germany). The membrane was blocked with 5% non-fat dry milk in 1×TBST and incubated with the polyclonal anti-cdk2 antibody described above. […]
# [1] = test system: A549 non-small cell lung cancer cell line; test: treatment of tumor growth in vivo, A549 tumor xenografts; parameters: species or system athymic nude mice (CD1, nu/nu); settings: A549 xenograft in nude mice; 50 μl of 1.5 mM peptide injected into the tumoral region
# Procedure: Cell Culture The A549 (wt p53, and wt RB) non-small cell lung cancer cell line was cultured in Ham's F-12 with NaHCO3 (0.75 g NaHCO3/500 ml of Ham's F-12) and 10% (vol/vol) fetal bovine serum (FBS). The cells were cultured at 37° C. in a humidified incubator containing 5% CO2. Cells were harvested, when they reached 70-80% confluence.
# Preparation of Tumor Xenografts in Immunodeficient Mice: The animal experiments were carried out in accordance with the Guidelines for the Care and Use of Laboratory Animals (National Institute of Health publication number 85-23) and the institutional guidelines of Temple University. 4-6 week-old female athymic nude mice (CD1, nu/nu) were bought from Charles River Laboratory (Wilmington, Mass.). About a week after the mice arrived, the A549 cells were harvested and then suspended in unsupplemented culture medium without FBS. After the mice were anesthetized by isoflurane inhalation, 4×10^6 cells in a final volume of 100 μl were injected subcutaneously into the right flank of each mouse by using 1-cc syringes with 25.5-gauge needles.
# In Vivo Treatments: The length and width of each tumor were measured every time in triplicates by using a Vernier caliper. […]
# For each peptide type, three mice were treated. […] The tumor sizes were measured before each treatment. Tumor volumes were calculated and plotted on a graph. […]
Molecule,Kinase assay (inhibitory effect on cdk2 activity) (cdk2),inhibitory effect on cdk2 activity / histone H1 phosphorylation in vitro (cdk2),tumor growth [1]
"Spa310: pRb2/p130 amino acids 641-679 (39 amino acids long), SEQ ID NO:3; LTPRRVTEVRADTGGLGRSITSPTTLYDRYSSPPASTTR (listed as Homo sapiens)",P,able to maintain the specific inhibitory ability; also recorded: strongly and similarly inhibited cdk2 activity,does suppress the tumor growth
B1,P,strongly and similarly inhibited cdk2 activity,

# Reference: patent publication US20090054333A1, “Peptide inhibitors of cyclin-dependent kinase activity and uses thereof” (priority 2006, published 2009)
